The subject of this experiment is BaF3 BRAF-KIAA1549 fusion cells. The experiment in a line: BaF3 BRAF-KIAA1549 fusion cell proliferation assay. It is filed as cell-based. The settings on record: Mus musculus, BaF3, 96 h, read-out: IC50, inhibition of cell growth, BaF3-BRAF:KIAA1549 Fusion. The procedure: Retroviral Production: The BRAF-KIAA1549 fusion mutant was subcloned into pMXs-IRES-Blasticidin (RTV-016, Cell Biolabs, San Diego, CA). […]. Briefly, HEK 293T cells were plated in Poly-D-lysine coated 6-well plate (2.5×10^5 cells per well) and incubated overnight. The next day, retroviral plasmids (1 μg of BRAF-KIAA fusion mutant, 0.32 μg of pCMV-Gag-Pol and 0.165 μg pCMV-VSV-G) were mixed in 300 μL of Optimem (31985, Life Technologies). The mixture was incubated at room temperature for 5 minutes and then added to Optimem containing transfection reagent Lipofectamine (11668, Invitrogen) and incubated for 20 minutes. The mixture was then added dropwise to HEK 293T cells. The next day the medium was replaced with fresh culture medium and retrovirus was harvested at 24 hours.
Generation of BRAF-KIAA1549 fusion stable cell line: BaF3 cells were plated in V-bottom 96 well plate (COSTAR #3894) in 80 μL of RPMI/10% FBS and 0.01 ng/mL mouse IL-3, supplemented with 8 μg/mL polybrene (4×10^4 cells/well). Cells were transduced with 20 μL of BRAF-KIAA1549 fusion viral supernatant by centrifuging for 30 minutes at 1000 rpm. Cells were placed in a 37 °C incubator overnight. Next day 100 μL of RPMI/10% FBS and 0.01 ng/mL mouse IL-3 was added. After 24 hours, 100 μL of cells were transferred to a 24 well plate containing 900 μL of RPMI/10% FBS and 15 μg/mL Blasticidin. Contents of the 24 well plate were sampled for cell viability via CellTiterGlo (Promega) over a 2-week period.
Assay for cell proliferation: BaF3 BRAF-KIAA1549 fusion cells were resuspended at 1.5×10^5 c/mL in RPMI containing 10% Heat Inactivated FBS, 1% L-glutamine and dispensed in duplicate ([…]) into 384 well plates. To determine the effect of compound on cell proliferation, BaF3 BRAF-KIAA1549 fusion cells were incubated for 96 hours in the presence of vehicle control (DMSO) or compound at varying concentrations. Inhibition of cell growth was determined by luminescent quantification (Envision by Perkin Elmer) of intracellular ATP content using CellTiterGlo (Promega), according to the protocol provided by the manufacturer. To determine the IC50 values, the vehicle-treated cells were normalized as viable cells and analyzed using the CDD Vault, Collaborative Drug Discovery, Burlingame, CA (the Levenberg-Marquardt algorithm; Levenberg, K, […]; Marquardt, D., 1963).
Table A assigns each compound a code for potency in the BaF3 BRAF-KIAA1549 fusion cell proliferation assay: A, B, C, or D. According to the code, A represents an IC50 value<20 nM; B represents an IC50 value≥20 nM and <100 nM; C represents an IC50 value≥100 nM and <500 nM; and D represents an IC50 value≥500 nM.
Take `CNc1cc2ncc(-c3cc(C(=O)Nc4cc(C(C)(C)C#N)ccn4)cnc3C)cc2cn1` [compound 59]: the IC50 lay in the range of 20 to 100 nM.

As for `CNc1cc2ncc(-c3cc(NC(=O)c4cc(C(F)(F)F)c(F)cn4)cnc3C)cc2cn1` [compound 60], the concentration for half-maximal inhibition (IC50) is below 20 nM.

For `CNc1cc2ncc(-c3cc(NC(=N)c4cc(C(F)(F)F)ccn4)ccc3C)cc2cn1` [compound 61], the IC50 was in the range of 100 to 500 nM.

Regarding `CNc1cc2ncc(-c3cc(NC(=O)CN4CCC[C@H](C(F)(F)F)C4)cnc3C)cc2cn1` [compound 62], the IC50 lay within 20 to 100 nM.

Regarding `CNc1cc2ncc(-c3cc(NC(=O)CN4CCC[C@H](C(F)(F)F)C4)ccc3C)cc2cn1` [compound 63], the IC50 lay in the range of 20 to 100 nM.

Turning to `CNc1cc2ncc(-c3cc(NC(=N)c4cc(C(F)(F)F)ccn4)cnc3C)cc2cn1` [compound 64], the IC50 was above 500 nM.

`CNc1cc2ncc(-c3cc(NC(=O)c4cc(C(C)(C)F)ccn4)cnc3C)cc2cn1` [compound 65]: the concentration for half-maximal inhibition (IC50) fell in the range of 20 to 100 nM.

`CNc1cc2ncc(-c3cc(NC(=O)c4cc(C(F)F)c(F)cn4)cnc3C)cc2cn1` [compound 66]: the half-inhibitory concentration (IC50) is 20 to 100 nM.

Take `CNc1cc2ncc(-c3cc(NC(=O)[C@H](C)n4cnc(C(F)(F)F)n4)ccc3C)cc2cn1` [compound 68]: the half-maximal inhibitory concentration (IC50) lay in the range of 20 to 100 nM.

In the case of `CNc1cc2ncc(-c3cc(NC(=O)[C@@H](C)n4cnc(C(F)(F)F)n4)ccc3C)cc2cn1` [compound 69], the IC50 is 100 to 500 nM.

In the case of `CNc1cc2ncc(-c3cc(NC(=O)c4cc(C(F)(F)F)c(OCCO)cn4)ccc3C)cc2cn1` [compound 71], the half-inhibitory concentration (IC50) was 20 to 100 nM.

Consider `CNc1cc2ncc(-c3cc(NC(=O)c4ccc(OC(F)F)cn4)cnc3C)cc2cn1` [compound 72], for which the concentration for half-maximal inhibition (IC50) was above 500 nM.

Consider `CNc1cc2ncc(-c3cc(NC(=O)c4cc(C(F)(F)F)ccn4)nnc3C)cc2cn1` [compound 75], for which the IC50 fell in the range of 20 to 100 nM.

Consider `CNc1cc2ncc(-c3cc(NC(=O)c4cc(C(C)(C)C#N)ccn4)nnc3C)cc2cn1` [compound 77], for which the IC50 was in the range of 20 to 100 nM.

Regarding `Cc1ccc(NC(=O)c2cc(C(F)F)ccn2)cc1-c1cnc2cc(NCCC#N)ncc2c1` [compound 78], the 50% inhibitory concentration (IC50) lay within 20 to 100 nM.

Take `CNc1cc2nc(C#N)c(-c3cc(NC(=O)c4ccnc(C(F)(F)F)c4)ccc3C)cc2cn1` [compound 79]: the 50% inhibitory concentration (IC50) was below 20 nM.

`CCNc1cc2ncc(-c3cc(NC(=O)c4ccnc(C5(F)CC5)c4)ccc3C)cc2cn1` [compound 153]: the IC50 was in the range of 20 to 100 nM.

Consider `Cc1ccc(NC(=O)c2ccnc(C3(F)CC3)c2)cc1-c1cnc2cc(N)ncc2c1` [compound 154], for which the IC50 was below 20 nM.

For the compound `CCNc1cc2ncc(-c3cc(NC(=O)c4cc(C(C)(C)C#N)ccn4)ccc3C)cc2cn1` [compound 173], the IC50 lay in the range of 20 to 100 nM.

Take `Cc1ccc(NC(=O)c2cc(C(C)(C)C#N)ccn2)cc1-c1cnc2cc(N)ncc2c1` [compound 174]: the IC50 is 20 to 100 nM.

For `CCNc1cc2ncc(-c3cc(NC(=O)c4cc(C(C)(C)C#N)ccn4)cnc3C)cc2cn1` [compound 175], the concentration for half-maximal inhibition (IC50) was in the range of 20 to 100 nM.

Regarding `Cc1ncc(NC(=O)c2cc(C(C)(C)C#N)ccn2)cc1-c1cnc2cc(N)ncc2c1` [compound 176], the half-maximal inhibitory concentration (IC50) is 20 to 100 nM.

Turning to `CNc1cc2ncc(-c3cc(NC(=O)N(C)c4cc(C(F)F)ccn4)ccc3C)cc2cn1` [compound 189], the IC50 lay within 100 to 500 nM.

With `CNc1cc2ncc(-c3cc(NC(=O)N(C)c4ccnc(C(F)F)c4)cnc3C)cc2cn1` [compound 190], the IC50 was in the range of 100 to 500 nM.

Regarding `CNc1cc2ncc(-c3cc(NC(=O)c4cccc(C5(C#N)CC5)c4)cnc3C)cc2cn1` [compound 191], the half-maximal inhibitory concentration (IC50) lay in the range of 20 to 100 nM.

As to `CNc1ncc2cc(-c3cc(NC(=O)c4ccnc(C(C)(C)C#N)c4)cnc3C)cnc2c1C#N` [compound 192], the IC50 fell in the range of 100 to 500 nM.

For the compound `CNc1cc2ncc(-c3cc(NC(=O)c4cccc(C(C)(C)C#N)c4)ccc3C)cc2cn1` [compound 193], the IC50 was below 20 nM.

For `CNc1cc2ncc(-c3cc(NC(=O)c4c[nH]c5ccccc45)cnc3C)cc2cn1` [compound 194], the 50% inhibitory concentration (IC50) was in the range of 20 to 100 nM.

Turning to `CNc1cc2ncc(-c3cc(NC(=O)c4cnc5n4CCC(C)C5)ccc3C)cc2cn1` (stereo not drawn) [compound 195], the half-inhibitory concentration (IC50) is above 500 nM.

As for `CNc1cc2ncc(-c3cc(C(=O)Nc4cccc(C(C)(C)C#N)c4)cnn3)cc2cn1` [compound 196], the half-inhibitory concentration (IC50) is above 500 nM.

Turning to `CNc1cc2ncc(-c3c(C)ncc(NC(=O)c4cc(C(C)(C)C#N)ccn4)c3Cl)cc2cn1` [compound 197], the half-inhibitory concentration (IC50) was above 500 nM.

Consider `CNc1cc2ncc(-c3cc(NC(=O)c4cccc5c4CCCC5=O)cnc3C)cc2cn1` [compound 198], for which the concentration for half-maximal inhibition (IC50) is above 500 nM.

With `CNc1cc2ncc(-c3cc(NC(=O)c4cccc(C(C)(F)F)c4)cnc3C)cc2cn1` [compound 200], the IC50 is below 20 nM.

With `CNc1cc2ncc(-c3cc(NC(=O)c4cc(C(O)C5CC5)ccn4)cnc3C)cc2cn1` (stereo not drawn) [compound 201], the IC50 fell in the range of 20 to 100 nM.

For the compound `CNc1cc2ncc(-c3cc(NC(=O)c4cc(C(O)C(C)C)ccn4)cnc3C)cc2cn1` (stereo not drawn) [compound 202], the IC50 was in the range of 20 to 100 nM.

With `CNc1cc2ncc(-c3cc(NC(=O)c4cc(C(NC)C(F)(F)F)ccn4)ccc3C)cc2cn1` (stereo not drawn) [compound 203], the half-maximal inhibitory concentration (IC50) is below 20 nM.

In the case of `CNc1cc2ncc(-c3cc(NC(=O)c4cnc5n4CC(C)CC5)ccc3C)cc2cn1` (stereo not drawn) [compound 204], the IC50 was below 20 nM.

Turning to `CNc1cc2ncc(-c3cc(NC(=O)c4cnc5n4C(C)CCC5)ccc3C)cc2cn1` (stereo not drawn) [compound 205], the IC50 lay in the range of 100 to 500 nM.

Regarding `CNc1cc2ncc(-c3cc(NC(=O)c4cc(C(O)(O)C(F)(F)F)ccn4)cnc3C)cc2cn1` [compound 206], the IC50 was 20 to 100 nM.

For the compound `CNc1cc2ncc(-c3cc(NC(=O)c4cccc5c4CCC[C@H]5O)cnc3C)cc2cn1` [compound 207], the 50% inhibitory concentration (IC50) was above 500 nM.

As for `CNc1cc2ncc(-c3cc(NC(=O)c4cnc5n4CCCC5)cnc3C)cc2cn1` [compound 209], the half-inhibitory concentration (IC50) was above 500 nM.

As for `CNc1cc2ncc(-c3cc(NC(=O)c4cccc(C(O)C(F)(F)F)n4)cnc3C)cc2cn1` (stereo not drawn) [compound 210], the IC50 is above 500 nM.

On to `CNc1cc2ncc(-c3cc(NC(=O)c4nccc5c4OCCC5O)cnc3C)cc2cn1` (stereo not drawn) [compound 211], for which the half-inhibitory concentration (IC50) is above 500 nM.

In the case of `CNc1cc2ncc(-c3cc(NC(=O)c4cccc5c4CCC5=O)cnc3C)cc2cn1` [compound 212], the IC50 was above 500 nM.

Turning to `CNc1cc2ncc(-c3cc(C(=O)Nc4cc(C(C)(C)C#N)ccn4)cnn3)cc2cn1` [compound 213], the IC50 is above 500 nM.

Regarding `CNc1cc2ncc(-c3cc(NC(=O)c4cnc5n4CCCC5C)ccc3C)cc2cn1` (stereo not drawn) [compound 214], the IC50 was in the range of 20 to 100 nM.

As for `CNc1cc2ncc(-c3cc(NC(=O)c4cccc5c4NC(=O)C5(C)C)ccc3C)cc2cn1` [compound 215], the concentration for half-maximal inhibition (IC50) was 20 to 100 nM.

With `CNc1cc2ncc(-c3cc(NC(=O)c4cnc5n4CCCC5)ccc3C)cc2cn1` [compound 216], the half-maximal inhibitory concentration (IC50) was in the range of 100 to 500 nM.

Consider `CNc1cc2ncc(-c3cc(NC(=O)c4ccnc(C(C)(C)C#N)c4)c(F)cc3C)cc2cn1` [compound 217], for which the IC50 is 20 to 100 nM.

Regarding `CNc1cc2ncc(-c3cc(NC(=O)c4cc(C(N(C)C)C(F)(F)F)ccn4)ccc3C)cc2cn1` (stereo not drawn) [compound 218], the IC50 fell in the range of 20 to 100 nM.

As for `CNc1cc2ncc(-c3cc(NC(=O)c4cccc5c4CCC5O)cnc3C)cc2cn1` (stereo not drawn) [compound 219], the half-inhibitory concentration (IC50) was above 500 nM.

A word on the IC50: it is the concentration at which inhibition is half-maximal.
